Read-outs that look alike come from different tables or passages of the source.

The subject of the experiment is HepG2-A16-CD81EGFP cells. Conditions: for IC50: read-out: Tox_IC50, HepG2 cytotoxicity.
The mark [1] stands for this setting: sheet 2nd round, maximal inhibition in dose response.
Where [2] appears, read: 2nd round, maximal inhibition in dose series.

With `CCCNC(=O)N1[C@H](C#N)[C@H](c2ccc(C3=CCCCC3)cc2)[C@@H]1CO` [BRD-K52785744-001-01-7], where the note is “sheet "2nd round"”, the IC50 was determined as 7.93 µM and the “Tox_max_inhibition (%)” value came to 50%.
With `C[C@@H]1CN([C@H](C)CO)C(=O)c2cc(NC(=O)Nc3ccc4c(c3)OCO4)ccc2O[C@@H](C)CCCCO[C@H]1CN(C)S(=O)(=O)c1ccccc1` [BRD-K54383078-001-01-5], where the note is “sheet 2nd round”, the IC50 was above 10 µM. For the same compound, under setting [1], the “Tox_max_inhibition (%)” value stood at 5.48%.
For `COc1ccc(-c2ccccc2[C@@H]2[C@@H](C#N)N(C(=O)NC3CCCCC3)[C@H]2CO)cc1` [BRD-K55353065-001-01-2], the “Tox_max_inhibition (%)” value under setting [2] came out at 11%. Moreover, the IC50 (2nd round, unit inferred) was above 10 µM.
For the compound `COc1ccc(NC(=O)N2CCCCN3[C@H](CO)[C@@H](c4ccc(-c5ccccc5F)cc4)[C@H]3C2)cc1` [BRD-K55569739-001-01-9], under “sheet 2nd round”, the IC50 was above 10 µM. Under setting [1], the “Tox_max_inhibition (%)” value turned out to be 3.75%.
With `C[C@H]1CN([C@@H](C)CO)C(=O)c2cccc(NC(=O)NC3CCCCC3)c2O[C@H]1CN(C)Cc1ccc(C(F)(F)F)cc1` [BRD-K56432748-001-01-8], where the note is “sheet 2nd round”, the IC50 is above 10 µM. Moreover, under setting [1], the “Tox_max_inhibition (%)” value was 10%.
For `O=C(C[C@@H]1C[C@H]2c3cc(NC(=O)c4ccc5c(c4)OCO5)ccc3O[C@H]2[C@H](CO)O1)NCc1ccc(Oc2ccccc2)cc1` [BRD-K60334624-001-01-9] the same measures were above 10 µM and 4.54%.
Regarding `CCCNC(=O)N1[C@H](C#N)[C@H](c2ccc(C#Cc3ccc(F)cc3)cc2)[C@@H]1CO` [BRD-K61371184-001-01-2], for the setting “sheet "2nd round"”, the IC50 was above 10 µM and the “Tox_max_inhibition (%)” value stood at 22%.
With `COc1ccc(S(=O)(=O)Nc2ccc3c(c2)C(=O)N([C@H](C)CO)C[C@@H](C)[C@@H](CN(C)S(=O)(=O)c2ccc(Cl)cc2)OCCCC[C@@H](C)O3)cc1` [BRD-K63849586-001-01-9], the “Tox_max_inhibition (%)” value under setting [2] turned out to be 13%. Besides, the IC50 (2nd round, unit inferred) was above 10 µM.
On to `Cc1ccc(S(=O)(=O)N2CC[C@H]3[C@H](CO)Nc4ccc(-c5cccc(C(=O)N(C)C)c5)cc4[C@H]32)cc1` [BRD-K64741770-001-01-3], for which the IC50 (sheet 2nd round) was above 10 µM. In addition, the “Tox_max_inhibition (%)” value under setting [1] came out at 15%.
With `N#Cc1ccc(-c2ccc(C3[C@@H]4CN(C(=O)Nc5ccc6c(c5)OCO6)C[C@H]3N4)cc2)cc1` (some centres unmarked) [BRD-K65395967-019-01-2], the “Tox_max_inhibition (%)” value under setting [2] is on record as 28%. For the same compound, the IC50 (2nd round, unit inferred) was above 10 µM.
Regarding `O=C(C[C@H]1C[C@H]2c3cc(NC(=O)c4ccc5c(c4)OCO5)ccc3O[C@H]2[C@H](CO)O1)NCc1ccc(Oc2ccccc2)cc1` [BRD-K67774729-001-02-1], where the note is “sheet 2nd round”, the IC50 is above 10 µM. Besides, the “Tox_max_inhibition (%)” value under setting [1] came out at 24%.
For `O=C(C[C@@H]1C[C@H]2c3cc(NC(=O)c4ccc5c(c4)OCO5)ccc3O[C@H]2[C@@H](CO)O1)NCc1ccc(Oc2ccccc2)cc1` [BRD-K67862512-001-01-7], in that order: above 10 µM and 23%.
As for `Cc1ccccc1-c1ccc2c(c1)O[C@H](CN(C)C(=O)Nc1ccc(C(F)(F)F)cc1)[C@@H](C)CN([C@@H](C)CO)S2(=O)=O` [BRD-K68538844-001-01-1], the IC50 (sheet 2nd round) is above 10 µM. In addition, the “Tox_max_inhibition (%)” value under setting [1] worked out at 35%.
As for `C[C@@H]1CN([C@@H](C)CO)C(=O)c2cc(NC(=O)Nc3ccc4c(c3)OCO4)ccc2O[C@@H](C)CCCCO[C@H]1CN(C)S(=O)(=O)c1ccccc1` [BRD-K69357983-001-01-6], under setting [2], the “Tox_max_inhibition (%)” value is reported as 9%. For the same compound, the IC50 (2nd round, unit inferred) is above 10 µM.
Take `N#C[C@H]1[C@H](c2ccc(-c3cccc(F)c3)cc2)[C@@H](CO)N1C(=O)NC1CCCC1` [BRD-K69441790-001-01-1]: for the setting “sheet 2nd round”, the IC50 stood at 9.7 µM. The “Tox_max_inhibition (%)” value under setting [1] is 57%.
Turning to `Fc1cccc(CN2C[C@@H]3N[C@H](C2)C3c2ccc(/C=C/c3ccccc3)cc2)c1` (some centres unmarked) [BRD-K69682028-019-01-6], for the setting “sheet "2nd round"”, the IC50 was above 10 µM and the “Tox_max_inhibition (%)” value came to 16%.
As to `CCCNC(=O)N1[C@H](C#N)[C@@H](c2ccccc2C2=CCCCC2)[C@@H]1CO` [BRD-K70760948-001-01-2], the “Tox_max_inhibition (%)” value under setting [2] is 10%. Where the note is “2nd round, unit inferred”, the IC50 is above 10 µM.
For the compound `C[C@H](CO)N1C[C@H](C)[C@@H](CN(C)Cc2ccccc2)Oc2c(NC(=O)Cc3cn(C)c4ccccc34)cccc2C1=O` [BRD-K71196168-001-01-1], under “sheet "2nd round"”, the IC50 was above 10 µM and the “Tox_max_inhibition (%)” value turned out to be 44%.
For `COc1ccccc1C#Cc1ccc([C@H]2[C@@H](C#N)N(C(=O)C3CCCC3)[C@H]2CO)cc1` [BRD-K71730412-001-01-1], under “sheet 2nd round”, the IC50 is above 10 µM. Moreover, the “Tox_max_inhibition (%)” value under setting [1] worked out at 13%.
For `C[C@@H]1CN([C@@H](C)CO)C(=O)c2cc(N(C)C)ccc2O[C@@H](C)CCCCO[C@H]1CN(C)S(=O)(=O)c1ccc(F)cc1` [BRD-K72173400-001-01-7] the same measures were above 10 µM and 6%.
On to `COc1ccccc1-c1ccc2c(c1)[C@@H]1[C@@H](CCN1C(=O)C1CCC1)[C@H](CO)N2` [BRD-K72492940-001-01-8], for which, under “sheet 2nd round”, the IC50 is above 10 µM. In addition, under setting [1], the “Tox_max_inhibition (%)” value is listed as 18%.
For `N#Cc1cccc(-c2ccc3c(c2)[C@H]2[C@H](CCN2S(=O)(=O)c2ccc(F)cc2)[C@@H](CO)N3)c1` [BRD-K73006286-001-01-7] the same measures were above 10 µM and 15%.
In the case of `C[C@H]1CN([C@@H](C)CO)C(=O)c2cccc(NC(=O)c3ccc(-c4nccs4)cc3)c2O[C@H]1CN(C)C(=O)Nc1ccc(C(F)(F)F)cc1` [BRD-K73614094-001-01-0], the “Tox_max_inhibition (%)” value under setting [2] is on record as 12%. Further, for the setting “2nd round, unit inferred”, the IC50 is above 10 µM.
For `CCCC(=O)N1CCC2(CC1)CN(S(=O)(=O)c1ccc(C)cc1)[C@@H](CO)c1[nH]c3cc(OC)ccc3c12` [BRD-K73703617-001-01-9], in that order: 12% and above 10 µM.
As for `CCCNC(=O)N1[C@H](C#N)[C@H](c2ccccc2-c2cccc(C)c2)[C@@H]1CO` [BRD-K74392214-001-01-7], the IC50 (sheet 2nd round) is above 10 µM. Further, under setting [1], the “Tox_max_inhibition (%)” value was found to be 7.44%.
With `N#C[C@H]1N[C@H](CO)[C@H]1c1ccc(C#CC2CCCCC2)cc1` [BRD-K74656908-001-01-6], the IC50 (sheet 2nd round) was above 10 µM. The “Tox_max_inhibition (%)” value under setting [1] was determined as 6%.
For `C[C@H](CO)N1C[C@H](C)[C@H](CN(C)C(=O)Nc2ccc(C(F)(F)F)cc2)Oc2c(NC(=O)c3ccc(-c4nccs4)cc3)cccc2C1=O` [BRD-K74949371-001-01-3], where the note is “sheet 2nd round”, the IC50 is above 10 µM. Also, the “Tox_max_inhibition (%)” value under setting [1] was 6.39%.
For `OC[C@@H]1[C@H](c2ccc(-c3ccc(F)cc3)cc2)[C@@H](CNC2CCCC2)N1CCC(F)(F)F` [BRD-K76178468-001-01-1], in that order: above 10 µM and 22%.
For `CCCNC(=O)Nc1ccc2c(c1)OC[C@@H](C)N(Cc1ccccc1)C[C@@H](C)[C@H](OC)CN(C)C2=O` [BRD-K76980944-001-01-4], under setting [2], the “Tox_max_inhibition (%)” value was 6%. For the same compound, the IC50 (2nd round, unit inferred) is above 10 µM.
For the compound `C[C@H](CO)N1C[C@H](C)[C@H](CN(C)C(=O)C2CCCCC2)Oc2ncc(C#Cc3cccc(F)c3)cc2C1=O` [BRD-K77264696-001-01-2], the IC50 (sheet 2nd round) is above 10 µM. Also, the “Tox_max_inhibition (%)” value under setting [1] worked out at 30%.
Take `C[C@@H]1CN([C@@H](C)CO)C(=O)c2cc(C#Cc3ccccc3)cnc2O[C@H]1CN(C)C(=O)c1ccccc1` [BRD-K77826636-001-01-1]: the “Tox_max_inhibition (%)” value under setting [2] came out at 20%. Also, the IC50 (2nd round, unit inferred) was above 10 µM.
For `C[C@H](CO)N1C[C@H](C)[C@@H](CN(C)S(=O)(=O)c2ccccc2)OCCCC[C@H](C)Oc2ccc(NC(=O)Nc3ccc4c(c3)OCO4)cc2C1=O` [BRD-K78605373-001-01-5] the same measures were 10% and above 10 µM.
Regarding `C[C@@H]1CCCCO[C@@H](CN(C)C(=O)Nc2cccc3ccccc23)[C@H](C)CN([C@H](C)CO)C(=O)c2cc(NC(=O)CCC(F)(F)F)ccc2O1` [BRD-K78692607-001-01-1], where the note is “sheet 2nd round”, the IC50 was above 10 µM. Moreover, the “Tox_max_inhibition (%)” value under setting [1] was 10%.
Turning to `COc1ccc(NC(=O)N2CCCCN3[C@H](CN(C)C)[C@H](c4ccc(C#Cc5ccccc5)cc4)[C@@H]3C2)cc1` [BRD-K78727929-001-08-1], the IC50 (sheet 2nd round) is 8.47 µM. Moreover, under setting [1], the “Tox_max_inhibition (%)” value is on record as 100%.
As to `N#C[C@H]1N[C@H](CO)[C@H]1c1ccc(C#Cc2ccccc2F)cc1` [BRD-K80648041-001-01-3], the IC50 (sheet 2nd round) was above 10 µM. The “Tox_max_inhibition (%)” value under setting [1] is listed as 11%.
With `CCCNC(=O)N1[C@H](C#N)[C@H](c2ccc(-c3cccc(OC)c3)cc2)[C@@H]1CO` [BRD-K80906650-001-01-7], under “sheet "2nd round"”, the IC50 is above 10 µM and the “Tox_max_inhibition (%)” value amounted to 45%.
Regarding `CCCNC(=O)N1[C@H](C#N)[C@H](c2ccc(-c3ccccc3F)cc2)[C@@H]1CO` [BRD-K81164606-001-02-5], under setting [2], the “Tox_max_inhibition (%)” value amounted to 43%. Moreover, for the setting “2nd round, unit inferred”, the IC50 was above 10 µM.
For the compound `N#C[C@H]1[C@@H](c2ccc(C3=CCCCC3)cc2)[C@@H](CO)N1C(=O)Nc1ccccc1F` [BRD-K81680265-001-01-4], the “Tox_max_inhibition (%)” value under setting [2] is listed as 11%. Besides, the IC50 (2nd round, unit inferred) is above 10 µM.
For `C(=C\c1ccc(C2[C@@H]3CN(Cc4nccs4)C[C@H]2N3)cc1)/c1ccccc1` (some centres unmarked) [BRD-K82593502-019-01-3] the same measures were 13% and above 10 µM.
`COc1ccc(NC(=O)N2CCCCN3[C@H](CO)[C@H](c4ccc(C#Cc5ccccc5)cc4)[C@@H]3C2)cc1` [BRD-K83953444-001-02-5]: for the setting “sheet 2nd round”, the IC50 is above 10 µM. For the same compound, the “Tox_max_inhibition (%)” value under setting [1] worked out at 55%.
For `O=C(Nc1ccccc1F)N1CCCCN2[C@H](CO)[C@H](c3ccc(/C=C/c4ccccc4)cc3)[C@@H]2C1` [BRD-K85670919-001-01-1] the same measures were above 10 µM and 13%.
For `O=C(NCC[C@H]1CC[C@H](NC(=O)c2ccccc2F)[C@@H](CO)O1)c1cnccn1` [BRD-K85850546-001-01-0] the same measures were above 10 µM and 9%.
In the case of `N#C[C@H]1[C@@H](c2ccc(-c3cccnc3)cc2)[C@@H](CO)N1C(=O)Nc1ccc(F)cc1` [BRD-K86354270-001-02-2], the IC50 (sheet 2nd round) was above 10 µM. Further, under setting [1], the “Tox_max_inhibition (%)” value was 14%.

These data come from publication PMC4890880 (ACS infectious diseases, 2016).
